Assay results from patent publication US6682740B1 (Yeda Research and Development Co. Ltd., priority 1997, dated 2004).
Blank lines part the entries; values can stand above or below the molecule they belong to. Residues, ends and D or L forms follow the SMILES beside them. No end group written: not given here.

Legend:
[1] = tested on: RBL-2H3 cells; experiment: Inhibition of antigen-induced (IgE-mediated) β-hexosaminidase secretion by RBL-2H3 cells; format: cell-based, rat; details: for inhibition of antigen-induced / IgE-dependent degranulation (β-hexosaminidase release): RBL-2H3 cells, result in words
Description: Cells. Rat mucosal mast cells, subline RBL-2H3 (Barsumian et al, 1981) were maintained in Eagle's MEM with Earle's salts supplemented by 10% FCS, 2 mM glutamine and antibiotics in a humidified atmosphere with 7% CO2 at 37° C. Secretory Response of Mast Cells. Mediator secretion by mast cells in response to stimulation by FcεRI clustering was monitored by measuring the activity of the granular enzyme β-hexosaminidase. DNP-specific murine IgE mAb, A2 (3 μl ascites) was added to 10^6 cells in 10 ml MEM and incubated in 96-well plates (100 μl suspension/well) for 2 h. Then, monolayers were washed three times with Tyrode's buffer and stimulated with the antigen (DNP11-BSA). […] Following incubation at 37° C. for 1 h, 20 μl of supernatants were taken and incubated with 50 μl of substrate solution (1.3 mg/ml p-nitrophenyl-N-acetyl-β-D-glucosamine in 0.1 M sodium citrate, pH 4.5) at 37° C. for 45 min. The reaction was terminated by the addition of 150 μl of 0.2 M glycine, pH 10.7, and the optical density of the samples was measured at 405 nm. Results of one representative experiment out of four yielding similar results are presented as percent of the total cell content of the enzyme minus the basal secreted activity. […] Degranulation of the cells was monitored by measuring the activity of the enzyme β-hexosaminidase released into the supernatants after stimulation for 1 h at 37° C. and are presented as net percentages of the cells' total β-hexosaminidase activity.

[2] = target: T1, FcεRI molecules on RBL-2H3 cells (Rattus norvegicus, UniProt P12371+P13386); experiment: Homo-FRET between FITC-IgE and TRITC-IgE on RBL-2H3 cells (flow cytometry); format: cell-based; details: dE = (E/E[control] − 1) × 100; for dE % (Dose 1): Dose 1: C3a 30 μM, C3a2 110 μM, C3a5 110 μM, C3a9 290 μM, C3a14-P 250 μM; for dE % (Dose 2): Dose 2: C3a 70 μM, C3a2 270 μM, C3a5 270 μM, C3a9 670 μM, C3a14-P 630 μM
T1 construct: targeting FcεRI molecules on RBL-2H3 cells; endogenous in cells; host or cells: RBL-2H3
T1 sequence (P12371 24-245): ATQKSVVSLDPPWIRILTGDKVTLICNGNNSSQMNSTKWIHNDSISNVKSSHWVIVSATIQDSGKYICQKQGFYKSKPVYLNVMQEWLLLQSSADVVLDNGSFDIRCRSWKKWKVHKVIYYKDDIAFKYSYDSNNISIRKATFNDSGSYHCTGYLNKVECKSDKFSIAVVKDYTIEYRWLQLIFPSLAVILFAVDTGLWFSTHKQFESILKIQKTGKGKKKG
T1 sequence (P13386 1-243): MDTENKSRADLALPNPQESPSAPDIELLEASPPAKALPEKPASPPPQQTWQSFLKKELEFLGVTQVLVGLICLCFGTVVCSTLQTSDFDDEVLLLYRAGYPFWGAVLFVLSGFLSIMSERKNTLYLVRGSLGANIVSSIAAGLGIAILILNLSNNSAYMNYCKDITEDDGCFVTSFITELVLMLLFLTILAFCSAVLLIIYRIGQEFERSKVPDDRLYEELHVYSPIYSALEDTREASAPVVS
T1 sequence (P20411 19-86 partner): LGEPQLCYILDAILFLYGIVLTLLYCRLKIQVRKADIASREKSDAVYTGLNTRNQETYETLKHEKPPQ
Description: The Forster-type resonance energy transfer between FITC-IgE and TRITC-IgE targeting FcεRI molecules on RBL-2H3 cells was measured (at 1:1 donor-acceptor ratio) by flow cytometry using a BectonDickinson FACStar Plus flow cytometer.

[3] = tested on: Ovalbumin-Sensitized Guinea Pig Model; experiment: Anaphylactic shock in ovalbumin-sensitized guinea pig model (death, respiratory parameters); format: in vivo; details: except for transient changes in respiratory parameters
[4] = tested on: RBL-2H3 cells; experiment: Binding of FITC-labeled C3a14-P to RBL-2H3 cells; parameters: species or system rat; details: for binding to RBL-2H3 cells: various concentrations, measured after washing / flow cytometry
Description: (§1) This supports proximity between the FcεR (IgE receptor) and the peptide.
RBL-2H3 cells were incubated with the peptide at various concentrations and binding was measured after washing the cells.

[5] = tested on: BMMC; experiment: Binding of FITC-labeled C3a14-P to BMMC (flow cytometry); parameters: species or system mouse; details: results not shown
From the text: as §1

[6] = tested on: IgE-TRITC on RBL-2H3 cells; experiment: FRET between C3a14-P-FITC and IgE-TRITC on RBL-2H3 cells; format: binding, rat
[7] = target: RBL-2H3 cells (rat mucosal mast cells), binding partner on the cell surface not identified; experiment: fluorescence of washed RBL-2H3 cells, peptide dose 250 µM
[8] = target: RBL-2H3 cells (rat mucosal mast cells), binding partner on the cell surface not identified; experiment: fluorescence of washed RBL-2H3 cells, peptide dose 510 µM
[9] = target: RBL-2H3 cells (rat mucosal mast cells), binding partner on the cell surface not identified; experiment: fluorescence of washed RBL-2H3 cells, peptide dose 630 µM
[10] = tested on: RBL-2H3 cells; details: earlier experiments, cited from earlier work

Molecule: DSSNYIR [C3a11, Asp-Ser-Ser-Asn-Tyr-Ile-Arg]
inhibition of antigen-induced / IgE-dependent degranulation (β-hexosaminidase release) [1]: inhibit IgE-dependent degranulation of RBL-2H3 cells to a similar extent as did C3a2

Molecule: SVQLTEKRMDKVGKYPKELR [C3a1, reference compound]
inhibition of antigen-induced / IgE-dependent degranulation (β-hexosaminidase release) [1]: had no effect at all

dE % (Dose 1) [2]: −64%
dE % (Dose 2) [2]: −67%
Molecule: CC[C@H](C)[C@H](NC(=O)[C@H](Cc1ccc(O)cc1)NC(=O)[C@H](CC(N)=O)NC(=O)[C@H](CS)NC(=O)[C@H](CS)NC(=O)[C@@H](N)CC(=O)O)C(=O)N[C@H](C(=O)N[C@@H](CCCNC(=N)N)C(N)=O)[C@@H](C)O [C3a9] (H-DCCNYITR-NH2)
effect of the C3a9 aerosol treatment itself on GPs (respiratory parameters) [3]: not affected by the treatment

binding to BMMC [5]: showed binding
Molecule: C3a14-P-FITC: FITC-labeled peptide C3a14-P (DSSNYITR; also: FITC label, position not given here)
Fluorescence Mean (w/o background) ([4]; peptide dose 250 μM): 25
Fluorescence Mean (w/o background) ([4]; peptide dose 510 μM): 74
Fluorescence Mean (w/o background) ([4]; peptide dose 630 μM): 157
binding to RBL-2H3 cells ([4]; listed as FITC-15 labeled C3a14-P): showed binding
binding to RBL-2H3 cells ([4]; listed as FITC-Labeled C3a14-P): specific binding, but no saturation is reached
FRET Efficiency E (%) ([6]; cells incubated with amount 20 of C3a14-P-FITC (unit not given)): 33%
FRET Efficiency E (%) ([6]; cells incubated with amount 40 of C3a14-P-FITC (unit not given)): 17%
FRET Efficiency E (%) ([6]; cells incubated with amount 60 of C3a14-P-FITC (unit not given)): 9%

dE % (Dose 1) [2]: −65%
dE % (Dose 2) [2]: −78%
Molecule: KKVFLDCCNYITELRRQHAR [C3a5]

dE % (Dose 1) [2]: −101%
dE % (Dose 2) [2]: −130%
Molecule: CNYITELRRQHARASHLGLAR [C3a2]
inhibition of antigen-induced / IgE-dependent degranulation (β-hexosaminidase release) [1]: inhibited in a dose-dependent manner
secretory response when only the peptide was added ([1]; peptide alone, same range of concentrations, no antigen): No secretory response

Molecule: Cys-Cys-Asn-Tyr-Gly (CCNYG; not fully specified; printed: Cys-Cys-Asn-Tyr-Gly) [C3a13]
inhibition of antigen-induced / IgE-dependent degranulation (β-hexosaminidase release) [1]: inhibit IgE-dependent degranulation of RBL-2H3 cells to a similar extent as did C3a2

dE % (Dose 1) [2]: −72%
dE % (Dose 2) [2]: −97%
Molecule: DSSNYITR [C3a14-P]

Fluorescence Mean (w/o background) [7]: 25
Fluorescence Mean (w/o background) [8]: 74
Fluorescence Mean (w/o background) [9]: 157
Molecule: DSSNYITR-NH2 (also: FITC-labeled, position of label not given here) [FITC-labeled C3a14-P]

B1: C5a: complement-derived peptide C5a (protein, UniProt P01031 678-751, looked up)
C5a anaphylatoxin: TLQKKIEEIAAKYKHSVVKKCCYDGACVNNDETCEQRAARISLGPRCIKAFTECCVVASQLRANISHKDMQLGR
modifications: C5a anaphylatoxin
secretory response when added alone ([10]; peptide alone (Erdei et al, 1995)): none of the complement-peptides C3a and C5a triggered the secretory response
inhibition of antigen-induced degranulation of RBL-2H3 ([10]; range of human C3a concentrations (Erdei et al, 1995)): had no effect at all
